Source: patent publication US20180235919A1, “System and Method For Treating Atheroma Formation” (Lonza Inc., priority 2015, published 2018)

Assays:
[1] = Plasma TMAO concentration by LC-MS; assay type: in vivo, mouse; details: high dose of L-carnitine (352 mg/kg), oral gavage once daily, ApoE KO/AAV-CETP mice (FIG. 4)
Protocol: (§1) ApoE KO mice, male and 6 to 7 weeks of age, were transfected in vivo with AAV-CETP. Two weeks after infection, CETP expression in plasma was verified using a commercially available ELISA kit, and the mice were placed on a Western (high-fat) diet.
(§2) The mice were sorted into several groups based on matching initial total cholesterol and verified CETP expression: 1 control group receiving a dose of dH2O. 2—a group receiving a high dose of L-carnitine (35.2 mg/mL dH2O). 3—a group receiving a low dose of L-carnitine (8.7mg/mL dH2O). 4—a group receiving a high dose of L-carnitine (35.2 mg/mL dH2O) and a dose of methimazaole (1.5 mg/mL dH2O). 5—a group receiving a dose of methimazaole (1.5 mg/mL dH2O).
(§3) Dosing began when the mice reached 10 weeks of age and continued for 12 weeks. Drugs were administered once daily by oral gavage. The animals' body weights were measured weekly.
The concentrations of L-carnitine and TMAO in the plasma were measured using a liquid chromatography mass spectrometry method. A deuterium labeled L-carnitine stock standard was prepared using the weigh by difference technique. About 5 mg of d9-L-carnitine from Cambridge Isotope Laboratories were added to a 10 mL volumetric flask via a weighing funnel or weighing paper, and water:methanol=1:1 was used to dissolve the sample. […]

[2] = Plasma L-carnitine concentration by LC-MS; assay type: in vivo, mouse; details: oral gavage once daily, ApoE KO/AAV-CETP mice (FIG. 3)
Protocol: as §1, §2, §3
The concentrations of L-carnitine and TMAO in the plasma were measured using a liquid chromatography mass spectrometry method. A deuterium labeled L-carnitine stock standard was prepared using the weigh by difference technique. About 5 mg of d9-L-carnitine from Cambridge Isotope Laboratories were added to a 10 mL volumetric flask via a weighing funnel or weighing paper, and water:methanol=1:1 was used to dissolve the sample. A deuterium labeled TMAO stock standard was prepared by accurately weighing 25±2 mg of d9-trimethylamine N-oxide reference standard, transferring the sample into a 25 mL volumetric flask, adding about 15 mL of water:methanol=1:1, and vortexing until dissolved. The flask was then filled to volume with water:methanol=1:1
Stock standards of deuterium labeled L-carnitine and deuterium labeled TMAO were prepared using 5 mg/10 mL water/methanol of d9-L-carnitine and 25 mg/25 mL water/methanol of d9-TMAO. These stock standards were used to prepare an internal standard by adding 200 μL of d9-L-carnitine stock standard and 10 μL of d9-TMAO into a 50 mL volumetric flask, adding acetonitrile to volume, and mixing well.
Calibration standards were then prepared. […]

[3] = system: mouse model of atherosclerosis; assay: En face analysis of thoracic aorta lesions (Sudan IV staining); assay type: in vivo; details: for amount of plaque present in the thoracic aorta (en face analysis): after 12 weeks of treatment, ApoE KO/AAV-CETP mice on Western diet (FIG. 5)
Protocol: as §1, §2, §3
The effect of treatment with L-carnitine and/or methimazole on atherosclerosis progression was determined by measuring the amount of lesions present in the thoracic aorta and the sinotubular junction of the aortic root. After 12 weeks of treatment, the mice were sacrificed, and their tissues were removed for analysis. The En-face thoracic aortas were isolated and prepared for analysis by trimming present fat and fixing the aortas in formalin for 48-72 hours. For morphometric en face analysis, the aortas were laid out, pinned on black matrix, and stained with the lipid binding dye Sudan IV to determine the percentage of the thoracic aorta with lesion present. A Nikon computerized image analysis system was used to image the vessels for surface involvement.

[4] = system: mouse model of atherosclerosis; assay: Plaque in the aortic root (aortic sinus sections, hematoxylin and eosin); assay type: in vivo; details: after 12 weeks of treatment, ApoE KO/AAV-CETP mice on Western diet (FIG. 7)
Protocol: as §1, §2, §3

concentration of L-carnitine in the plasma compared to the control vehicle ([2]; high dose of L-carnitine (352 mg/kg))	concentration of L-carnitine in the plasma compared to the control vehicle ([2]; low dose of L-carnitine (87 mg/kg))	Structure (SMILES)	concentration of TMAO compared to the vehicle control [1]	amount of plaque present in the thoracic aorta (en face analysis) [3]	amount of plaque in the aortic root [4]	percent lesion area of the thoracic aorta ([3]; TMAO levels higher than 0.1 ppm versus TMAO levels lower than 0.1 ppm (FIG. 6))	concentration of L-carnitine in comparison to the control vehicle ([2]; methimazole (15 mg/kg))
significant increase	significant increase	C[N+](C)(C)C[C@H](O)CC(=O)[O-] [L-carnitine]	statistically significant increase	no significant changes	small but significant reductions	–	–
–	–	C[N+](C)(C)[O-] [TMAO, trimethylamine N-oxide]	–	–	–	significant decrease	–
–	–	Cn1cc[nH]c1=S [methimazole]	–	no significant changes	small but significant reductions	–	significant decrease
